We go through 4 molecules from ChEMBL document CHEMBL4177590, “Design, synthesis and biological evaluation of WZ4002 analogues as EGFR inhibitors” (Bioorg Med Chem Lett, 2017).

For assay [1], the system named is NCI-H460. As to the kind of experiment: Potency index, ratio of gefitinib IC50 to compound IC50 for human NCI-H460 cells. The format is functional.
For assay [2], the system named is NCI-H460. As to the kind of experiment: Potency index, ratio of WZ4002 IC50 to compound IC50 for human NCI-H460 cells. It counts as functional.

Structures are written as SMILES.

`COc1cc(N2CCN(C)CC2)ccc1Nc1ncc(Cl)c(Oc2ccccc2NC(=O)CCO)n1`: the “Ratio IC50” value in the assay with NCI-H460 [1] and in the assay on NCI-H460 [2] was 6 - 10 throughout.

For `COc1cc(N2CCN(C)CC2)ccc1Nc1ncc(Cl)c(Oc2ccccc2NC(=O)CO)n1`, the “Ratio IC50” value in the assay on NCI-H460 [1] and with NCI-H460 [2] was 6 - 10 each time.

On to `COc1cc(N2CCN(C)CC2)ccc1Nc1ncc(Cl)c(Oc2ccccc2NC(=O)CCOCc2ccccc2)n1`, for which the “Ratio IC50” value in the assay with NCI-H460 [1] and with NCI-H460 [2] was 6 - 10 in each case.

With `COc1cc(N2CCN(C)CC2)ccc1Nc1ncc(Cl)c(Oc2ccccc2NC(=O)COCc2ccccc2)n1`, the “Ratio IC50” value in the assay with NCI-H460 [1] and with NCI-H460 [2] was 6 - 10 in each case.
